Results: patent publication US11339169B2, “P2X3 and/or P2X2/3 compounds and methods” (Asana BioSciences, LLC, priority 2016, dated 2022)

Tests used:
hP2X3 = molecular target: T1, hP2X3 (Homo sapiens, UniProt P56373); assay: FLIPR intracellular calcium assay, hP2X3; format: cell-based; details: human P2X3-HEK cells, agonist at EC75
T1 construct: host or cells: HEK (hP2X3-HEK)
T1 sequence (P56373 1-397): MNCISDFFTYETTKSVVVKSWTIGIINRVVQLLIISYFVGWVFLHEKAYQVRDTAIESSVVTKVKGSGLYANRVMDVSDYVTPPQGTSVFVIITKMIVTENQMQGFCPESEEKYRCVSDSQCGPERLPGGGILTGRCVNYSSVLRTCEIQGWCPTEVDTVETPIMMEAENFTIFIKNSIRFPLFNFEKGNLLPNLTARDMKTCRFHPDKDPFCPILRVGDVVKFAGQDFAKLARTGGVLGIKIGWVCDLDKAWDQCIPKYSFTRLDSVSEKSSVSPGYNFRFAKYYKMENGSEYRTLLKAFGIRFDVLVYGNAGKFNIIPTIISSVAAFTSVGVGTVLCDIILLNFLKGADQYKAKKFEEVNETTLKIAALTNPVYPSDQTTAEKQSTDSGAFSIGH
Excerpt: (§1) The FLIPR® assay utilizes cells which express human or rat P2X3 or P2X2/3 receptors. Recombinant cells expressing hP2X3 (Cat #6188) and hP2X2/3 (Cat #6179) were procured from Chantest Corp. Rat P2X2 (NCBI Accession No: U14414) was amplified by PCR from PC12 cDNA (a rat adrenal medulla cell line). The PCR product obtained containing the protein coding sequence of rat P2X2 was cloned into EcoRV-digested and dephosphorylated vector plRES-puro3 within the multiple cloning site (MCS). See, FIG. 1A.
(§2) (i) Intracellular Calcium Assay Protocol for Screening Compounds
(§3) Cryo-vial containing 6×10^6 cells (human P2X3-HEK/human P2X2/3-TRex293/rat P2X2/3-TRex293/rat P2X3 TRex-CHO) was thawed in a 37° C. water bath. Cells were suspended in 20 mL of respective cell plating media (See annexure for composition) in a 50 mL centrifuge tube. The cell viability was checked with the help of Trypan Blue dye. Upon washing, cells were plated in a black 384-well clear bottomed, sterile poly-D-lysine coated plate such that, each well contained 10,000 cells (15,000/well for hP2X3) in 30 μL cell plating media. The plate was incubated in a 5% CO2 incubator at 37° C. for 24 h.
(§4) The next day, prior to the assay, the cell plating media was removed from each well by decanting and gentle tapping. Thirty μL of FLIPR Calcium 4 dye solution was added to each well. The plate was incubated at 37° C. for 45 min (60 min for hP2X3). The plate was next equilibrated at room temperature for 15 minutes before placing it in a 384 well FLIPR for the assay.
(§5) Compounds were dissolved in DMSO and serially diluted following 11 point half log (3.16 fold) dilution with a starting concentration of 2 mM. Dilutions were mixed with assay buffer just before performing the assay.
(§6) Compounds were added to the respective wells of the assay-ready cell plate with the help of the FLIPR and fluorescence readings were captured for 5 min to observe any possible agonistic property of the compounds. The plate was then incubated at room temperature for 15 min. The cells were stimulated with respective agonist EC75 concentration and the fluorescence readings were captured for another 5 min by FLIPR. The difference in fluorescence readings in presence of the compounds were compared with that of the control wells (wells having no compound) to calculate the inhibitory potency of the compounds. The IC50 values of the compounds were determined using the Graph pad Prism software.
(§7) (ii) Cell Plating Media for hP2X3-HEK and hP2X2/3-TRex293 Cells • DMEM/F12 (1:1) HAM media (Invitrogen; Cat #11039) • 1×NEAA (Invitrogen; Cat #11140) • 25 mM HEPES (Invitrogen; Cat #15630) • 1 mM sodium pyruvate (Invitrogen; Cat #11360) • 10% tetracycline negative FBS (PAA; Cat #A15-209) • 1 μg/mL doxycycline (Clontech; Cat #63131) [for hP2X2/3-TRex293 cells only]
(§8) (v) Assay Buffer Composition • HBSS (Invitrogen Cat #14025) • 20 mM HEPES (Invitrogen Cat #15630) • 0.01% F127 (Sigma Cat #P2443) • 1.8 mM CaCl2 (Sigma Cat #C5080) • pH adjusted to 7.4
(§9) (vi) Dye Solution Composition • 1× FLIPR Calcium 4 dye in assay buffer (Molecular devices Cat #R8141) • 1.8 mM Probenecid (Sigma Cat #P8761) • pH adjusted to 7.4

hP2X2/3 = molecular target: T2, hP2X2/3 (Homo sapiens, UniProt P56373+Q9UBL9); assay: FLIPR intracellular calcium assay, hP2X2/3; format: cell-based; details: human P2X2/3-TRex293 cells, agonist at EC75
T2 construct: host or cells: TRex293 (hP2X2/3-TRex293), doxycycline-induced
T2 sequence (P56373 1-397): T1 sequence (P56373 1-397)
T2 sequence (Q9UBL9 1-471): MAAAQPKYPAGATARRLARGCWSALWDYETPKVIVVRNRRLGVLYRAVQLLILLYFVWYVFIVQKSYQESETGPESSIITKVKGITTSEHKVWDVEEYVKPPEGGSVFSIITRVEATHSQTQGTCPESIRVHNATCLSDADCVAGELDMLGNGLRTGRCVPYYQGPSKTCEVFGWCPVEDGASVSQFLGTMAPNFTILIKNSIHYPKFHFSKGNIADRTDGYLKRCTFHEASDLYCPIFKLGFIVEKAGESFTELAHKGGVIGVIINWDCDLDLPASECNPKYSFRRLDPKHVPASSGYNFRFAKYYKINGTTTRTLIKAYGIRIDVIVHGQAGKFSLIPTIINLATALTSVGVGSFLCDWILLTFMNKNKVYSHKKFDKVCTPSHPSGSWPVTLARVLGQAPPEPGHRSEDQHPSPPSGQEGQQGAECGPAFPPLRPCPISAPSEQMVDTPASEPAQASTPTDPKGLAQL
Excerpt: as §1, §2, §3, §4, §5, §6, §7, §8, §9

Structure (SMILES) | IC50 (hP2X3) [nM] | IC50 (hP2X2/3) [nM]
CCC(C)n1ncc2nc(N3CCOC(C#N)C3)nc(N[C@@H](c3cnc4ccccc4c3)C3CC3)c21 (stereo partly drawn) [Example 76] | 100 to 1000 | 1000 to 10000
CCC(CC)n1ncc2nc(N3CCN(C(C)=O)CC3)nc(NC(C)c3ccc4occc4c3)c21 (stereo not drawn) [Example 39] | 100 to 1000 | 1000 to 10000
CCC(C)n1ncc2nc(N3CCC(C(N)=O)CC3)nc(N[C@@H](c3cnc4ccccc4c3)C3CC3)c21 (stereo partly drawn) [Example 75] | 1 to 100 | 1000 to 10000
CCC(C)n1ncc2nc(-c3cnn(C)c3)nc(N[C@@H](c3cnc4ccccc4c3)C3CC3)c21 (stereo partly drawn) [Example 114] | 1 to 100 | 1 to 100
CC(=O)N1CCN(c2nc(NC(C)(C)Cc3ccc(Cl)cc3)c3nn(C(C)C)cc3n2)CC1 [Example 3] | 100 to 1000 | 1000 to 10000
CCC(C)n1cc2nc(N3CCN(C(C)=O)CC3)nc(NC(C)c3cnc4ccccc4c3)c2n1 (stereo not drawn) [Example 4] | 1 to 100 | > 10000
CC[C@H](C)n1ncc2nc(N3CCN(C(N)=O)CC3)nc(N[C@@H](c3cnc4ccccc4c3)C3CC3)c21 [Example 69] | 1 to 100 | 1 to 100
Cn1cc(-c2nc(N[C@@H](c3cnc4ccccc4c3)C3CC3)c3c(cnn3C3CCOCC3)n2)cn1 [Example 117] | 1 to 100 | 1000 to 10000
CC(=O)N1CCN(c2nc(N[C@H](C)c3cnc4ccccc4c3)c3nn(C(C)C)c(Cl)c3n2)CC1 [Example 99] | 1 to 100 | 1000 to 10000
CCC(CC)n1ncc2nc(N3CCN(C(C)=O)CC3)nc(NC(c3cnc4ccc(F)cc4c3)C3CC3)c21 (stereo not drawn) [Example 65] | 1 to 100 | 100 to 1000
CCC(C)n1ncc2nc(-c3cnn(CC)c3)nc(N[C@@H](c3cnc4ccccc4c3)C3CC3)c21 (stereo partly drawn) [Example 115] | 1 to 100 | 100 to 1000
CCC(C)n1ncc2nc(N3CCN(C(C)=O)CC3)nc(NC(C)c3ccc4oc(C)cc4c3)c21 (stereo not drawn) [Example 45] | 1 to 100 | 1000 to 10000
CCC(C)n1nc2c(N[C@H](C)c3cnc4ccccc4c3)nc(N3CCN(C(C)=O)CC3)nc2c1Br (stereo partly drawn) [Example 105] | 1 to 100 | 1000 to 10000
CC[C@H](C)n1ncc2nc(N3CCN(C(N)=O)CC3)nc(NC(c3cnc4ccccc4n3)C3CC3)c21 (stereo partly drawn) [Example 83] | 1 to 100 | 1000 to 10000
CC(=O)N1CCN(c2nc(N[C@H](C)c3cnc4ccccc4c3)c3nn(CC(C)C)cc3n2)CC1 [Example 7] | 100 to 1000 | > 10000
CC(=O)N1CCN(c2nc(N[C@H](C)c3cnc4ccccc4c3)c3c(cnn3C(C)C(C)C)n2)CC1 (stereo partly drawn) [Example 60] | 1 to 100 | 100 to 1000

Continued, values first:

IC50 (hP2X3) [nM] | IC50 (hP2X2/3) [nM] | Structure (SMILES)
1 to 100 | 1000 to 10000 | CCC(C)n1nc(C#N)c2nc(N3CCN(C(C)=O)CC3)nc(N[C@H](C)c3cnc4ccccc4c3)c21 (stereo partly drawn) [Example 91, 5-(4-Acetyl-piperazin-1-yl)-1-sec-butyl-7-((R)-1-quinolin-3-yl-ethylamino)-1H-pyrazolo[4,3-d]pyrimidine-3-carbonitrile]
1 to 100 | 1000 to 10000 | CC(=O)N1CCN(c2nc(N[C@H](C)c3cnc4ccccc4c3)c3nn(C(C)C)c(Br)c3n2)CC1 [Example 98]
1 to 100 | 1000 to 10000 | CCC(CC)n1ncc2nc(N3CCN(C(C)=O)CC3)nc(NC(C)c3ccc(OC(C)C)cc3)c21 (stereo not drawn) [Example 47]
1 to 100 | > 10000 | CC(=O)N1CCN(c2nc(N[C@H](C)c3cnc4ccccc4c3)c3nn(C(C)C)c(C#N)c3n2)CC1 [Example 103]
1 to 100 | 1 to 100 | CCC(C)n1ncc2nc(N3CCN(/C(N)=N\C#N)CC3)nc(N[C@H](C)c3cnc4ccccc4c3)c21 (stereo partly drawn) [Example 111, 4-(1-sec-butyl-7-{[(R)-methyl(quinolin-3-yl)methyl]amino}-1H-pyrazolo[4,3-d]pyrimidin-5-yl)-N′-cyanopiperazine-1-carboximidamide]
1 to 100 | 1000 to 10000 | CC(=O)N1CCN(c2nc(N[C@H](C)c3cnc4ccccc4c3)c3c(cnn3C(C)C)n2)CC1 [Example 12]
1 to 100 | 1000 to 10000 | CCC(C)n1ncc2nc(-c3cccnn3)nc(N[C@@H](c3cnc4ccccc4c3)C3CC3)c21 (stereo partly drawn) [Example 127, (1-sec-Butyl-5-pyridazin-3-yl-1H-pyrazolo[4,3-d]pyrimidin-7-yl)-((R)-cyclopropyl-quinolin-3-yl-methyl)-amine]
1 to 100 | 1000 to 10000 | CCC(C)n1ncc2nc(N3CCN(C(N)=O)CC3)nc(N[C@H](C)c3cn4ccc(C)cc4n3)c21 (stereo partly drawn) [Example 84]
1 to 100 | 1 to 100 | CCC(C)n1ncc2nc(N3CCN(C(N)=NC#N)CC3)nc(N[C@@H](c3cnc4ccccc4c3)C3CC3)c21 (stereo partly drawn) [Example 110, 4-(1-sec-butyl-7-{[(R)-cyclopropyl(quinolin-3-yl)methyl]amino}-1H-pyrazolo[4,3-d]pyrimidin-5-yl)-N′-cyanopiperazine-1-carboximidamide]
1 to 100 | 100 to 1000 | CCC(C)n1ncc2nc(N3CCN(C(C)=O)CC3)nc(N[C@H](C)c3cnc4ccccc4c3)c21 (stereo partly drawn) [Example 89, 1-{4-[1-sec-Butyl-7-((R)-1-quinolin-3-yl-ethylamino)-1H-pyrazolo[4,3-d]pyrimidin-5-yl]-piperazin-1-yl}-ethanone]
1 to 100 | > 10000 | CC(=O)N1CCN(c2nc(N[C@H](C)c3cnc4ccccc4c3)c3nn(C(C)C)c(C)c3n2)CC1 [Example 102]
1 to 100 | 1000 to 10000 | CC(=O)N1CCN(c2nc(NC(C)(C)Cc3ccc(Cl)cc3)c3c(cnn3C(C)C)n2)CC1 [Example 13]
1 to 100 | > 10000 | CC(=O)N1CCN(c2nc(NC(C)c3cnc4ccccc4c3)c3nn(C(C)C)c(C)c3n2)CC1 (stereo not drawn) [Example 96]
1 to 100 | > 10000 | CCC(C)n1cc2nc(N3CCN(C(C)=O)CC3)nc(N[C@H](C)c3cnc4ccccc4c3)c2n1 (stereo partly drawn) [Example 5]
1 to 100 | 1000 to 10000 | CCC(CC)n1ncc2nc(N3CCN(C(N)=O)CC3)nc(NCc3cnc4ccccc4c3)c21 [Example 64]
1 to 100 | 100 to 1000 | CCC(C)n1ncc2nc(-c3cnn(CCO)c3)nc(N[C@@H](c3cnc4ccccc4c3)C3CC3)c21 (stereo partly drawn) [Example 121]
1 to 100 | 1000 to 10000 | NC(=O)N1CCN(c2nc(N[C@@H](c3cnc4ccccc4c3)C3CC3)c3c(cnn3C3CCOCC3)n2)CC1 [Example 72]
